Results on ten molecules are retold here after ChEMBL document CHEMBL5053521 (Bioorg Med Chem Lett, 2021).

Each structure is given as a SMILES string.

Assay [1] deals with T1, Histamine H2 receptor (Homo sapiens, UniProt P25021). Nature of the assay: Binding affinity to human H2R expressed in HEK293T-qs5-HA cells by flow cytometry analysis. Type of assay: cell-based.
Assay [2] addresses T1, Histamine H2 receptor. Nature of the assay: Displacement of [3H]UR-DE257 from Gsalphas-coupled human H2R expressed in Sf9 cell membranes by competitive binding assay. Details: species or system Membrane.
Assay [3] deals with T1, Histamine H2 receptor. Nature of the assay: Agonist activity at human H2 receptor expressed in Sf9 cell membranes co-exprssing GsalphaS assessed as stimulation of [35S]GTPgammaS binding incubated for 90 mins by scintillation counting analysis. The assay is classed as functional, Membrane.
The target of assay [4] is T1, Histamine H2 receptor. Nature of the assay: Agonist activity at NlucN/mini-Gi protein-fused human H2R stably expressed in HEK293T cells assessed as induction of mini-Gi protein recruitment using furimazine as substrate measured for 45 mins by luminescence assay. Type of assay: functional, cell-based.
Assay [5] addresses T1, Histamine H2 receptor. The experiment in a line: Agonist activity at human H2 receptor expressed in HEK293T-ARRB1 cells assessed as stimulation of beta-arrestin 1 recruitment by measuring maximum efficacy. Type of assay: functional, cell-based. The settings on record: filed as agonist.
Assay [6] addresses T1, Histamine H2 receptor. Nature of the assay: Agonist activity at human H2 receptor expressed in HEK293T-ARRB2 cells assessed as stimulation of beta-arrestin 2 recruitment. Type of assay: functional, cell-based.
Assay [7] concerns the target T1, Histamine H2 receptor. The experiment in a line: Agonist activity at human H2 receptor expressed in HEK293T-ARRB1 cells assessed as stimulation of beta-arrestin 1 recruitment. Type of assay: functional, cell-based.

T1 sequence (P25021 whole entry): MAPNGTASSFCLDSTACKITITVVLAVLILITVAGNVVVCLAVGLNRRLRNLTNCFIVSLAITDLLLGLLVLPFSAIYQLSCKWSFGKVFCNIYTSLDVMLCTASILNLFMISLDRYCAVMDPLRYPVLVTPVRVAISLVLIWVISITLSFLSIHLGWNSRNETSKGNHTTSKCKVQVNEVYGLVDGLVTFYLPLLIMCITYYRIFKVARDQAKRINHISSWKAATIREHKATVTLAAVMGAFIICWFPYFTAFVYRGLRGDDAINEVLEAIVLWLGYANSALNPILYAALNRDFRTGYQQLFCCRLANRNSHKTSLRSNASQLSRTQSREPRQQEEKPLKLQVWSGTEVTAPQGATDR

`Cc1nc(N)sc1CCCN/C(N)=N/C(=O)NCCCCCCCCCCNC(=O)CCCCCN1/C(=C/C=C/C=C/C2=[N+](CCCCS(=O)(=O)[O-])c3ccccc3C2(C)C)c2ccccc2C1(C)C` showed a Kd at Histamine H2 receptor [1] of 229 nM. Moreover, at Histamine H2 receptor [2], affinity was put at a Ki of 95.5 nM. In addition, the EC50 at Histamine H2 receptor [3] was 676 nM; at Histamine H2 receptor [4] it was 1450 nM.
With `NCCc1c[nH]cn1`, the Emax at Histamine H2 receptor [5] amounted to 1.
Molecule `Cc1nc(N)sc1CCCN/C(N)=N/C(=O)NCCCCCCCCNC(=O)CCCCCNC(=O)COc1ccc(/C=C/C2=[N+]3C(=Cc4ccc(-c5cccs5)n4[B-]3(F)F)C=C2)cc1` gave a Kd on Histamine H2 receptor [1] of 81.3 nM. Besides, on Histamine H2 receptor [2], the Ki was 30.1 nM. In addition, the EC50 on Histamine H2 receptor [3] is 72.4 nM.
Molecule `Cc1nc(N)sc1CCCN/C(N)=N/C(=O)NCCCCCCCCNC(=O)CCCCCN1/C(=C/C=C/C=C/C2=[N+](CCCCS(=O)(=O)O)c3ccccc3C2(C)C)c2cc(S(=O)(=O)[O-])ccc2C1(C)C` had a Kd on Histamine H2 receptor [1] greater than 1000 nM. The same molecule had a Ki on Histamine H2 receptor [2] of 263 nM. Further, the results for the EC50 on Histamine H2 receptor [3] and on Histamine H2 receptor [4] were 1290 nM and 759 nM, respectively.
Turning to `Cc1nc(N)sc1CCCN/C(N)=N/C(=O)NCCCCCCCCNC(=O)CCCCCN1/C(=C/C=C/C=C/C2=[N+](CCCCS(=O)(=O)[O-])c3ccccc3C2(C)C)c2ccccc2C1(C)C`, the EC50 at Histamine H2 receptor [6] was 129 nM; at Histamine H2 receptor [3], 339 nM; on Histamine H2 receptor [7] it was 617 nM; at Histamine H2 receptor [4], 1100 nM. For the same molecule, on Histamine H2 receptor [1], the Kd was 70.8 nM. The molecule further had a Ki at Histamine H2 receptor [2] of 562 nM. Also, the Emax on Histamine H2 receptor [5] was 0.09.
For `Cc1nc(N)sc1CCCN/C(N)=N/C(=O)NCCCCCCNC(=O)CCCCCN1/C(=C/C=C/C=C/C2=[N+](C)c3ccccc3C2(C)C)c2ccccc2C1(C)C`, the EC50 at Histamine H2 receptor [6] was 191 nM; at Histamine H2 receptor [3], 186 nM; at Histamine H2 receptor [7], 513 nM; at Histamine H2 receptor [4] it was 501 nM. In addition, on Histamine H2 receptor [1], the Kd was 33 nM. This molecule also showed a Ki at Histamine H2 receptor [2] of 21.9 nM. Further, the Emax at Histamine H2 receptor [5] came to 0.57.
As for `CC1(C)C(/C=C/C=C/C=C2\c3ccccc3C(C)(C)N2CCCCCC(=O)NCCCCCCCCNC(=O)/N=C(\N)NCCCc2c[nH]cn2)=[N+](CCCCS(=O)(=O)[O-])c2ccccc21`, the EC50 on Histamine H2 receptor [6] is 115 nM; on Histamine H2 receptor [3] it was 120 nM; on Histamine H2 receptor [7] it was 427 nM; at Histamine H2 receptor [4], 339 nM. In addition, the affinity on Histamine H2 receptor [1], expressed as Kd, was 56.2 nM. Also, affinity on Histamine H2 receptor [2] was put at a Ki of 66.1 nM. In addition, the Emax on Histamine H2 receptor [5] was 0.25.
On to `CC1(C)C(/C=C/C=C/C=C2\c3ccccc3C(C)(C)N2CCCCCC(=O)NCCCCCCCCNC(=O)/N=C(\N)NCCCc2nnc(N)s2)=[N+](CCCCS(=O)(=O)[O-])c2ccccc21`, for which the EC50 is 64.6 nM on Histamine H2 receptor [6], 100 nM on Histamine H2 receptor [3], 339 nM at Histamine H2 receptor [7] and 257 nM at Histamine H2 receptor [4]. For the same molecule, on Histamine H2 receptor [1], the affinity, expressed as Kd, was 112 nM. The molecule also showed a Ki at Histamine H2 receptor [2] of 263 nM. Besides, the Emax on Histamine H2 receptor [5] amounted to 0.55.
On Histamine H2 receptor [2], `Cc1nc(N)sc1CCCN/C(N)=N/C(=O)NCCCCCCCCCCNC(=O)CCCCCN1/C(=C/C=C/C=C/C2=[N+](CCCCS(=O)(=O)O)c3ccccc3C2(C)C)c2cc(S(=O)(=O)[O-])ccc2C1(C)C` gave a Ki greater than 1000 nM. Further, the figures for the EC50 on Histamine H2 receptor [3] and at Histamine H2 receptor [4] were 2400 nM and 2040 nM, respectively.
Molecule `Cc1nc(N)sc1CCCN/C(N)=N/C(=O)NCCCCCCNC(=O)CCCCCN1/C(=C/C=C/C=C/C2=[N+](CCCCS(=O)(=O)[O-])c3ccccc3C2(C)C)c2ccccc2C1(C)C` had a Kd on Histamine H2 receptor [1] of 1000 nM. The Ki on Histamine H2 receptor [2] was 251 nM. Besides, the EC50 on Histamine H2 receptor [3] is 562 nM; on Histamine H2 receptor [4], 3890 nM.
